Bounds are passed on as bounds.

Sequence of human PD-L1 (Q9NZQ7 19-239): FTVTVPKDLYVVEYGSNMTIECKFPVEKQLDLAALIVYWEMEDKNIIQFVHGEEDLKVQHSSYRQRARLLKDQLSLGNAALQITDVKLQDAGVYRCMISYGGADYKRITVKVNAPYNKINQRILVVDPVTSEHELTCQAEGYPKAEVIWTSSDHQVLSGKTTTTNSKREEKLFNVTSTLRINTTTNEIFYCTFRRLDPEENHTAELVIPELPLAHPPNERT

This experiment addresses human PD-L1 (Homo sapiens (Human), UniProt Q9NZQ7). Description: Enzyme-Linked Immunosorbent Assay (ELISA), PD-1/PD-L1 binding. As to conditions: plates coated with human PD-L1; Human PD-1 and biotin added; absorbance at 450 nm. The method, then: 96 Well plates were coated with 1 μg/mL of human PD-L1 (obtained from R&D) in PBS overnight at 4° C. The wells were then blocked with 2% BSA in PBS (W/V) with 0.05% TWEEN-20 for 1 hour at 37° C. The plates were washed 3 times with PBS/0.05% TWEEN-20 and the compounds were serial diluted (1:5) in dilution medium and added to the ELISA plates. Human PD-1 and biotin 0.3 μg/mL (ACRO Biosystems) were added and incubated for 1 hour at 37° C. then washed 3 times with PBS/0.05% TWEEN-20. A second block was performed with 2% BSA in PBS (W/V)/0.05% TWEEN-20 for 10 min at 37° C. and the plates were washed 3 times with PBS/0.05% TWEEN-20. Streptavidin-HRP was added for 1 hour at 37° C. then the plates were washed 3 times with PBS/0.05% TWEEN-20. TMB substrate was added and reacted for 20 min at 37° C. A stop solution (2 N aqueous […]) was added. The absorbance was read at 450 nm using a micro-plate spectrophotometer.
On the technique in general: In an ELISA, binding on a coated surface is turned into a signal by an enzyme label.
Broadly, the IC50 is the concentration needed to halve the response being measured. A higher IC50 goes with weaker potency. On to `COc1nc(-c2cccc(-c3cccc(Nc4nccc5nccnc45)c3Cl)c2Cl)cnc1CN[C@@H]1CCOC[C@@H]1O` [Compound 1.001], for which the IC50 was under 10 nM.
The result for `COc1nc(-c2cccc(-c3cccc(Nc4nccc5nccnc45)c3Cl)c2Cl)cnc1CN1CC(C(=O)O)C1` [Compound 1.002] reads under 10 nM; that for `COc1nc(-c2cccc(-c3cccc(Nc4nccc5nccnc45)c3Cl)c2Cl)cnc1CN1CC(C)(C(=O)O)C1` [Compound 1.003], under 10 nM; that for `COc1nc(-c2cccc(-c3cccc(Nc4nccc5nccnc45)c3Cl)c2Cl)cnc1CNC[C@@H]1CCC(=O)N1` [Compound 1.004], under 10 nM.
The result for `COc1nc(-c2cccc(-c3cccc(Nc4nc(C)nc5cccnc45)c3C)c2Cl)cnc1CNCC1(O)CC1` [Compound 1.005] reads under 10 nM; that for `COc1nc(-c2cccc(-c3cccc(Nc4nc(C)nc5cccnc45)c3C)c2Cl)cnc1CNCCCO` [Compound 1.006], under 10 nM; that for `COc1nc(-c2cccc(-c3cccc(Nc4nc(C)nc5cccnc45)c3C)c2Cl)ccc1CN1CC(C)(O)C1` [Compound 1.007], under 10 nM.
To `COc1nc(-c2cccc(-c3cccc(Nc4nc(C)nc5cccnc45)c3C)c2Cl)ccc1CN1CC2(CNC(=O)N2)C1` [Compound 1.008] belongs under 10 nM; to `COc1nc(-c2cccc(-c3cccc(Nc4nc(C)nc5cccnc45)c3Cl)c2F)ccc1CN[C@@H]1CCOC[C@@H]1O` [Compound 1.009], under 10 nM; to `COc1nc(-c2cccc(-c3cccc(Nc4nc(C)nc5cccnc45)c3C)c2C#N)ccc1CN[C@@H]1CCOC[C@@H]1O` [Compound 1.010], under 10 nM.
Consider `COc1nc(-c2cccc(-c3cccc(Nc4nc(C)nc5cccnc45)c3Cl)c2F)ccc1CNC[C@@H]1CCC(=O)N1` [Compound 1.011], for which the half-maximal inhibitory concentration (IC50) is under 10 nM.
To `COc1nc(-c2cccc(-c3cccc(Nc4nc(C)nc5cccnc45)c3C)c2F)ccc1CN[C@@H]1CCOC[C@@H]1O` [Compound 1.012] belongs under 10 nM.
`COc1nc(-c2cccc(-c3cccc(Nc4nc(C)nc5cccnc45)c3C)c2F)ccc1CNC[C@@H]1CCC(=O)N1` [Compound 1.013] gave an IC50 of under 10 nM.
`CCOc1nc(-c2cccc(-c3cccc(Nc4nc(C)nc5cccnc45)c3C)c2Cl)ccc1CNC[C@@H]1CCC(=O)N1` [Compound 1.014] yielded an IC50 of under 10 nM.
Compound `COc1nc(-c2cccc(-c3cccc(Nc4nc(C)nc5cccnc45)c3C)c2Cl)ccc1CNCC(C)(C)C(N)=O` [Compound 1.015] showed an IC50 of under 10 nM.
The result for `COc1nc(-c2cccc(-c3cccc(Nc4nc(C)nc5cccnc45)c3C)c2Cl)ccc1CNC[C@H](O)CC(=O)O` [Compound 1.016] reads under 10 nM; that for `COc1nc(-c2cccc(-c3cccc(Nc4nc(C)nc5cccnc45)c3C)c2Cl)ccc1CNC1CNC1` [Compound 1.017], under 10 nM; that for `COc1nc(-c2cccc(-c3cccc(Nc4nc(C)nc5cccnc45)c3C)c2Cl)ccc1CN[C@H]1CC[C@@H]1O` [Compound 1.018], under 10 nM.
To `COc1nc(-c2cccc(-c3cccc(Nc4nc(C)nc5cccnc45)c3C)c2Cl)ccc1CNC1CCNCC1` [Compound 1.019] belongs under 10 nM; to `Cc1nc(Nc2cccc(-c3cccc(-c4ccc(CNC[C@@H]5CCC(=O)N5)c(C(F)(F)F)n4)c3Cl)c2C)c2ncccc2n1` [Compound 1.020], under 10 nM; to `COc1nc(-c2cccc(-c3cccc(Nc4nc(C)nc5cccnc45)c3C)c2Cl)ccc1CN(C)CCO` [Compound 1.021], under 10 nM.
To `COc1nc(-c2cccc(-c3cccc(Nc4nc(C)nc5cccnc45)c3C)c2Cl)ccc1CN1CCC[C@@H](C(=O)O)C1` [Compound 1.022] belongs under 10 nM; to `COc1nc(-c2cccc(-c3cccc(Nc4nc(C)nc5cccnc45)c3C)c2Cl)ccc1CN[C@H]1CCC(=O)NC1` [Compound 1.023], under 10 nM; to `COc1nc(-c2cccc(-c3cccc(Nc4nc(C)nc5cccnc45)c3C)c2Cl)ccc1CN[C@H]1CNC(=O)C1` [Compound 1.024], under 10 nM.
In turn, `COc1nc(-c2cccc(-c3cccc(Nc4nc(C)nc5cccnc45)c3C)c2Cl)ccc1CNCc1ncc[nH]1` [Compound 1.025] yielded an IC50 of under 10 nM.
Compound `COc1nc(-c2cccc(-c3cccc(Nc4nc(C)nc5cccnc45)c3C)c2Cl)ccc1CNC[C@H]1CCC(=O)N1` [Compound 1.026] returned an IC50 of under 10 nM.
Compound `COc1nc(-c2cccc(-c3cccc(Nc4nc(C)nc5cccnc45)c3C)c2Cl)ccc1CNC[C@H](O)CO` [Compound 1.027] had an IC50 of under 10 nM.
To `COc1nc(-c2cccc(-c3cccc(Nc4nc(C)nc5cccnc45)c3C)c2Cl)ccc1CNC(C)C` [Compound 1.029] belongs under 10 nM; to `COc1nc(-c2cccc(-c3cccc(Nc4nc(C)nc5cccnc45)c3C)c2Cl)ccc1CNC(C)(C)C(=O)O` [Compound 1.030], under 10 nM.
To `COc1nc(-c2cccc(-c3cccc(Nc4nc(C)nc5cccnc45)c3C)c2Cl)ccc1CNCC(=O)O` [Compound 1.031] belongs under 10 nM; to `COc1nc(-c2cccc(-c3cccc(Nc4nc(C)nc5cccnc45)c3C)c2Cl)ccc1CNCCn1ccnc1` [Compound 1.032], under 10 nM; to `COc1nc(-c2cccc(-c3cccc(Nc4nc(C)nc5cccnc45)c3C)c2Cl)ccc1CN1CC[C@@](C)(C(=O)O)C1` [Compound 1.033], under 10 nM.
`COc1nc(-c2cccc(-c3cccc(Nc4nc(C)nc5cccnc45)c3C)c2Cl)ccc1CN1CC[C@@](C)(O)C1` [Compound 1.034]: the IC50 was under 10 nM.
The result for `COc1nc(-c2cccc(-c3cccc(Nc4nc(C)nc5cccnc45)c3C)c2Cl)ccc1CNC[C@@H](O)CC(=O)O` [Compound 1.035] reads under 10 nM; that for `COc1nc(-c2cccc(-c3cccc(Nc4nc(C)nc5cccnc45)c3C)c2Cl)ccc1CN1CCCC[C@H]1C(=O)O` [Compound 1.036], under 10 nM; that for `COc1nc(-c2cccc(-c3cccc(Nc4nc(C)nc5cccnc45)c3C)c2Cl)ccc1CN1CC2(CCNC2=O)C1` [Compound 1.037], under 10 nM.
To `CNCc1ccc(-c2cccc(-c3cccc(Nc4nc(C)nc5cccnc45)c3C)c2Cl)nc1OC` [Compound 1.038] belongs under 10 nM.
The result for `COc1nc(-c2cccc(-c3cccc(Nc4nc(C)nc5cccnc45)c3C)c2Cl)ccc1CN1CC[C@@H](O)C1` [Compound 1.040] reads under 10 nM.
Turning to `COc1nc(-c2cccc(-c3cccc(Nc4nc(C)nc5cccnc45)c3C)c2Cl)ccc1CNCC(N)=O` [Compound 1.041], the IC50 was under 10 nM.
`COc1nc(-c2cccc(-c3cccc(Nc4nc(C)nc5cccnc45)c3C)c2Cl)ccc1CN(C)[C@@H]1CCOC[C@@H]1O` [Compound 1.042] registered an IC50 of under 10 nM.
In the case of `COc1nc(-c2cccc(-c3cccc(Nc4nc(C)nc5cccnc45)c3C)c2Cl)ccc1CN1CCC(O)CC1` [Compound 1.043], the IC50 was under 10 nM.
In turn, `COc1nc(-c2cccc(-c3cccc(Nc4nc(C)nc5cccnc45)c3C)c2Cl)ccc1CN1CC[C@@H](C(=O)O)C1` [Compound 1.044] registered an IC50 of under 10 nM.
In turn, `CCc1nc(-c2cccc(-c3cccc(Nc4nc(C)nc5cccnc45)c3C)c2Cl)ccc1CN[C@@H]1CCOC[C@@H]1O` [Compound 1.045] came in with an IC50 of under 10 nM.
`CCc1nc(-c2cccc(-c3cccc(Nc4nc(C)nc5cccnc45)c3C)c2Cl)ccc1CNC[C@@H]1CCC(=O)N1` [Compound 1.046]: the IC50 is under 10 nM.
Compound `COc1nc(-c2cccc(-c3cccc(Nc4nc(C)nc5cccnc45)c3C)c2Cl)ccc1CN[C@H]1CCOC[C@H]1O` [Compound 1.047] had an IC50 of under 10 nM.
The result for `Cc1nc(Nc2cccc(-c3cccc(-c4ccc(CNC[C@@H]5CCC(=O)N5)c(C)n4)c3Cl)c2C)c2ncccc2n1` [Compound 1.048] reads under 10 nM.
The result for `COc1nc(-c2cccc(-c3cccc(Nc4nc(C)nc5cccnc45)c3C)c2Cl)ccc1CN1CCOCC1` [Compound 1.049] reads under 10 nM.
For `COc1nc(-c2cccc(-c3cccc(Nc4nc(C)nc5cccnc45)c3C)c2Cl)ccc1CNC(C)(C)CCO` [Compound 1.050], the IC50 was under 10 nM.
The result for `COc1nc(-c2cccc(-c3cccc(Nc4nc(C)nc5cccnc45)c3C)c2Cl)ccc1CNCC(C)(C)CO` [Compound 1.051] reads under 10 nM; that for `COc1nc(-c2cccc(-c3cccc(Nc4nc(C)nc5cccnc45)c3C)c2Cl)ccc1CNC1CCOCC1` [Compound 1.052], under 10 nM.
The result for `COc1nc(-c2cccc(-c3cccc(Nc4nc(C)nc5cccnc45)c3C)c2Cl)ccc1CN1CC2(CCC(=O)N2)C1` [Compound 1.053] reads under 10 nM; that for `COc1nc(-c2cccc(-c3cccc(Nc4nc(C)nc5cccnc45)c3C)c2Cl)ccc1CN[C@@H]1CCC(=O)NC1` [Compound 1.054], under 10 nM.
As to `COc1nc(-c2cccc(-c3cccc(Nc4nc(C)nc5cccnc45)c3C)c2Cl)ccc1CN[C@@H]1CNC(=O)C1` [Compound 1.055], the IC50 is under 10 nM.
The compound `COc1nc(-c2cccc(-c3cccc(Nc4nc(C)nc5cccnc45)c3C)c2Cl)ccc1CNC(CO)CO` [Compound 1.056] displayed an IC50 of under 10 nM.
The result for `COc1nc(-c2cccc(-c3cccc(Nc4nc(C)nc5cccnc45)c3C)c2Cl)ccc1CNCCO` [Compound 1.057] reads under 10 nM; that for `COc1nc(-c2cccc(-c3cccc(Nc4nc(C)nc5cccnc45)c3C)c2Cl)ccc1CN1CC(O)C1` [Compound 1.058], under 10 nM.

The record behind these values is patent publication US11866429B2, “Heteroaryl-biphenyl amines for the treatment of PD-L1 diseases” (CHEMOCENTRYX, INC., priority 2019, dated 2024).
